For one series, the system named is T-47D. Briefly: MTT anti-proliferative assay, T-47D breast cancer cells. The format is cell-based. The note with it: Homo sapiens, T47D, 48 h exposure, mean ± SD of three separate experiments. The method, then:
(§1) 1. Anti-proliferative activity toward human breast cell lines
(§2) The two examined human breast cancer cell lines (T-47D and MCF-7) have been obtained from American Type Culture Collection (ATCC). Cells lines were maintained as monolayers in Dulbecco’s Modified Eagle’s Medium (DMEM) supplemented with 10% FBS, 2 mM L-glutamine, 100 U/ml penicillin and 100µg/ml streptomycin sulfate. Cells were sub-cultured with trypsine /EDTA solution, counted with haemocytometer and plated onto 96-well plates (5000 cells/well) and left overnight to form a semi-confluent monolayer. Cell monolayers were treated in quadrates with vehicle (DMSO, 0.1% v/v), test samples or Adriamycin as positive control for an exposure time of 48 h. At the end of exposure, MTT solution in PBS (5 mg/ml) was then added to all well including no cell blank and left to incubate for 90 min. The formation of formazan crystals were visually confirmed using phase contract microscopy. DMSO (100 µl/well) was added to dissolve the formazan crystals with shaking for 10 min after which the absorbance was read at 590 nm against no cell blanks on a FLuo Star Optima microplate reader (BMG technologies, Germany).
(§3) Cell proliferation was calculated comparing the OD values of the DMSO control wells and those of the samples represented as % proliferation to the control. Dose-response experiment was performed on samples producing > or =50% loss of cell proliferation using five serial 2-fold […]
(§4) IC50 values (concentration of sample causing 50% loss of cell proliferation of the vehicle control) were calculated using non-linear regression curve fitting of the dose response plots on GraphPad Prism V.6.0 software. […]
(Tetrazolium assays rely on reduction of a dye to a coloured formazan, in cell work by metabolically active cells.)

A further series has as its target T1, GSK-3β (Homo sapiens, UniProt P49841).
T1 construct: purchased BPS Biosciences, San Diego, CA, USA 79700
Briefly: GSK-3β kinase inhibition (GSK3β Assay Kit, BPS Biosciences). The format is biochemical. The note with it: mean ± SD of three separate experiments. The method, then: (§5) 2. CDK2/GSK-3β Kinase Inhibitory Activities
(§6) The CDK2 and GSK-3β inhibitory activities were determined for hybrids 5a-g using the CDK2
(§7) Kinase Enzyme System (catalog No. V2971) (Promega, Milan, Italy), and GSK3β Assay Kit

The subject of the next series is MCF-10A. Briefly: MTT cytotoxicity towards non-tumorigenic breast cells MCF-10A. Format: cell-based, human. The note with it: for IC50: Homo sapiens, MCF-10A, MTT assay, non-tumorigenic breast cell line; for Mean tumour selectivity index (S.I.): IC50 for MCF-10A/IC50 average for (MCF-7 and T-47D).
Text: In order to investigate their selectivity on cancer cells, hybrids 5d, 5e and 5f, endowed with dual growth inhibitory action against MCF-7 and T-47D cells, were assesses for their cytotoxic action towards the non-tumorigenic breast cells (MCF-10A), via the MTT assay. The obtained IC50s and the calculated mean tumour selectivity index (S.I.); IC50 for MCF-10A/IC50 average for (MCF-7 and T-47D) have been presented in Table 5.
as §1, §2
Cell proliferation was calculated comparing the OD values of the DMSO control wells and those of the samples represented as % proliferation to the control. Dose-response experiment was performed on samples producing > or =50% loss of cell proliferation using five serial 2-fold dilutions (50, 25, 12.5, 6.25 and 3.125 µM) of the sample. IC50 values (concentration of sample causing 50% loss of cell proliferation of the vehicle control) were calculated using non-linear regression curve fitting of the dose response plots on GraphPad Prism V.6.0 software. […]

Series [1] concerns MCF-7 cells. Briefly: Cell cycle analysis by flow cytometry (PI stain) in MCF-7 cells. The note with it: 24 h, at IC50 concentration; for %Sub-G1: control 1.29; for %G2/M: control 11.3; for %S: control 33.82; for %G0-G1: control 53.59. Format: cell-based, human. The method, then: Compounds showing promising antiproliferative as well as kinase inhibitory activity 5d, 5e and 5f were further investigated for their influence on the cell cycle progression by flow cytometry analysis using propidium iodide (PI) stain. Cell cycle parameters were compared for the breast cancer MCF-7 cells with DMSO as control and after treatment with the compounds of interest and incubation for 24 h, and the results were presented in Figure 5 and Table 3. […]
concentration), and then cells were washed twice with ice-cold phosphate buffered saline (PBS).
Subsequently, the treated cells were collected by centrifugation, fixed in ice-cold 70% (v/v) ethanol, washed with PBS, re-suspended with 100 μg/mL RNase, stained with 40 μg/mL PI, and analyzed by flow cytometry using FACS Calibur (Becton Dickinson, BD, Franklin Lakes, NJ,
For orientation: Flow cytometry measures light scatter and fluorescence of single cells or particles in a stream.

Series [2] has as its system MCF-7 cells. Briefly: Annexin V-FITC/PI dual staining apoptosis assay in MCF-7 cells. The format is cell-based, human. The note with it: at IC50 concentration; for Late Apoptosis (Upper Right %): control 0.19; for Early Apoptosis (Lower Right %): control 0.63; for Total apoptosis (L.R % + U.R %): control 0.82; for Necrosis: upper left quadrant, control 0.49. The method, then:
To investigate further the effect of the promising compounds 5d, 5e, and 5f on cell apoptosis, Annexin V-FITC/propidium iodide dual staining assay was performed according to the reported method. The morphological markers of apoptosis in the breast cancer MCF-7 cell line were examined before and after treatment with the compounds of interest. Apoptosis assay depends on the translocation of the phosphatidylserine (PS) phospholipid to the cell surface in cells undergoing apoptosis which can be easily detected by staining with the fluorescent conjugate of annexin V followed by flow cytometry analysis. Simultaneously, MCF-7 cells were stained with propidium iodide (PI) which could enter cells with damaged plasma membranes only. This enables the discrimination between early apoptotic cells (positive for PS, but negative for PI) from late apoptotic and necrotic cells (positive for both PS and PI). […]
4. Annexin V-FITC Apoptosis Assay
Phosphatidylserine externalization was assayed using Annexin V-FITC/PI apoptosis detection kit (BD Biosciences, USA) according to the manufacturer’s instructions. Breast cancer MCF-7 cells were cultured to a monolayer then treated with hybrids (5d, 5e and 5f) at their IC50 concentration. Briefly, cells were then harvested via trypsinization, and rinsed twice in PBS followed by binding buffer. Moreover, cells were re-suspended in 100 μL of binding buffer with the addition of 1 μL of FITC-Annexin V followed by an incubation period of 30 min at 4 °C. Cells were then rinsed in binding buffer and resuspended in 150 μL of binding buffer with the addition of 1 μL of DAPI (1 μg/μL in PBS). Cells were then analyzed using the flow cytometer BD FACS Canto II and the results were interpreted with FlowJo7.6.4 software (Tree Star, Ashland, OR,

In another series the target is T2, CDK2 (Homo sapiens, UniProt P24941).
T2 construct: purchased Promega, Milan, Italy V2971
Briefly: CDK2 kinase inhibition (CDK2 Kinase Enzyme System, Promega). The format is biochemical. The note with it: mean ± SD of three separate experiments. On the procedure: as §5, §6, §7

A further series has as its system MCF-7. Briefly: MTT anti-proliferative assay, MCF-7 breast cancer cells. The format is cell-based. The note with it: Homo sapiens, MCF7, 48 h exposure, mean ± SD of three separate experiments. The method, then:
as §1, §2, §3, §4

Structures are written as SMILES.

T1 sequence (P49841 whole entry): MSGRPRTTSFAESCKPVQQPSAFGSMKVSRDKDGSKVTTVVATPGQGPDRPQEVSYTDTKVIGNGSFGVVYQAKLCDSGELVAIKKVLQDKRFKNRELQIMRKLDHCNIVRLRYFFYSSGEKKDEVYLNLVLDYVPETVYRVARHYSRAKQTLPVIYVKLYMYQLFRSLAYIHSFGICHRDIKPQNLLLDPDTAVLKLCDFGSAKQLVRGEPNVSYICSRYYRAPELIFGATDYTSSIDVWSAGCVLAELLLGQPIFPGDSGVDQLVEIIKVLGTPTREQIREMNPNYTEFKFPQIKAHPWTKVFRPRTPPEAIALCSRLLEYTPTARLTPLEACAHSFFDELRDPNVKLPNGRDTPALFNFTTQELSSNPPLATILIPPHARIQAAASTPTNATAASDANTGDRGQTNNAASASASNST

For `O=C1Nc2ccc(Br)cc2C1=NNC(=O)c1cc2cc(Br)ccc2o1` [5d, 5-Bromo-N'-(5-bromo-2-oxoindolin-3-ylidene)benzofuran-2-carbohydrazide], the melting point (usually the temperature of the solid-liquid transition) is above 300 °C. Besides, in the series with T-47D, the concentration for half-maximal inhibition (IC50) (as a rule, the midpoint of a concentration-inhibition curve) came out at 3.82 ± 0.12 µM. The IC50 against GSK-3β amounted to 0.0321 ± 0.0017 µM. Moreover, in the series with MCF-10A, half-maximal inhibition (IC50) required 21.7 ± 1.05 µM and the “Mean tumour selectivity index (S.I.)” value was 6.0. Further, in the series with MCF-7 cells [1], the “%Sub-G1” value was found to be 13.27%, the “%G2/M” value was 30.26%, the “%S” value is on record as 22.5% and the “%G0-G1” value is on record as 33.97%. Also, in the series on MCF-7 cells [2], the “Late Apoptosis (Upper Right %)” value is reported as 10.14%, the “Early Apoptosis (Lower Right %)” value was found to be 3.61%, the “Total apoptosis (L.R % + U.R %)” value was 13.75% and the Necrosis is 1.56%. This compound also displayed an IC50 against CDK2 of 0.0378 ± 0.0021 µM. Further, in the series on MCF-7, the concentration for half-maximal inhibition (IC50) stood at 3.41 ± 0.1 µM.
The compound `Cc1ccc2c(c1)C(=NNC(=O)c1cc3cc(Br)ccc3o1)C(=O)N2` [5e, 5-Bromo-N'-(5-methyl-2-oxoindolin-3-ylidene)benzofuran-2-carbohydrazide] had a melting point above 300 °C. The compound also gave an IC50 with T-47D of 4.53 ± 0.14 µM. The IC50 at GSK-3β was found to be 0.0808 ± 0.0044 µM. Also, in the series on MCF-10A, it took 23.6 ± 0.86 µM to reach half-maximal inhibition (IC50) and the “Mean tumour selectivity index (S.I.)” value is recorded as 5.9. Besides, in the series on MCF-7 cells [1], the “%Sub-G1” value came to 17.73%, the “%G2/M” value is listed as 29.21%, the “%S” value came out at 23.21% and the “%G0-G1” value is listed as 29.85%. In addition, in the series with MCF-7 cells [2], the “Late Apoptosis (Upper Right %)” value amounted to 15.08%, the “Early Apoptosis (Lower Right %)” value amounted to 4.66%, the “Total apoptosis (L.R % + U.R %)” value is 19.74% and the Necrosis is recorded as 1.81%. The same compound had an IC50 on CDK2 of 0.177 ± 0.0096 µM. The same compound came in with an IC50 with MCF-7 of 3.45 ± 0.1 µM.
